According to paper PMC6632053, “Incorporation of Putative Helix-Breaking Amino Acids in the Design of Novel Stapled Peptides: Exploring Biophysical and Cellular Permeability Properties” (Molecules, 2019):
Like-named read-outs stand apart in the source and are kept apart here. Bridge positions count the residues as written; N and C are the ends. Square brackets hold non-standard residues; d marks the D form. Peptide text beside a SMILES is read from it. Lys(N3) = [N-]=[N+]=NCCCC[C@H](N)C(=O)O; R8 = C=CCCCCCC[C@@](C)(N)C(=O)O; Cba = N[C@@H](CC1CCC1)C(=O)O; S5 = C=CCCC[C@](C)(N)C(=O)O; Aib = CC(C)(N)C(=O)O; βAla = NCCC(=O)O

Assays:
human Mdm2 1–125 = biological target: T1, human Mdm2 1–125 (Homo sapiens, UniProt Q00987); assay: Mdm2 binding assay (competitive fluorescence anisotropy/polarization); conditions: Table 1; competitive fluorescence polarization; read-out: Mdm2 (nM), Mdm2 binding (Kd)
T1 construct: GST (N); His6 (internal); TEV cleavage site ENLYFQG (internal); made in house; host or cells: Escherichia coli BL21 (DE3) Rosetta T1R
Experimental: The TEV (tobacco etch virus) cleavage site was changed from ENLYFQS to ENLYFQG to give a fusion protein with the following sequence:
Titrations were carried out with the concentration of Mdm2 held constant at 250 nM and the labeled peptide at 50 nM. The competing molecules were then titrated against the complex of the FAM-labeled peptide and protein. Apparent Kd values were determined by fitting the experimental data to the equations shown below:(2) r=r0+(rb−r0)×2(d^2−3e)cos(θ/3)−9/3Kd1+2(d^2−3e)cos(θ/3)−dd=Kd1+Kd2+[L]st+[L]t−[P]te=([L]t−[P]t)Kd1+([L]st−[P]t)Kd2+Kd1Kd2f=−Kd1Kd2[P]tθ=arcos[−2d^3+9de−27f/2(d^2−3e)^3] where [L]st and [L]t denote labeled ligand and total unlabeled ligand input concentrations, respectively. Kd2 is the dissociation constant of the interaction between the unlabeled ligand and the protein. In all competition experiments, it was assumed that [P]t > [L]st, otherwise considerable amounts of free labeled ligand would always be present and would interfere with measurements. Kd1 is the apparent Kd for the labeled peptide used and was experimentally determined as described in the previous paragraph. The FAM-labeled peptide was dissolved in dimethyl sulfoxide (DMSO) at 1 mM and diluted into the experimental buffer. Readings were carried out with an Envision Multilabel Reader (PerkinElmer). Experiments were carried out in PBS (2.7 mM KCl, 137mM NaCl, 10 mM Na2HPO4, and 2 mM KH2PO4 (pH 7.4)) and 0.1% Tween 20 buffer. All titrations were carried out in triplicate. Curve-fitting was carried out using Prism 4.0 (GraphPad). […] Negative control titrations of the ligands under investigation were also carried out with the fluorescently labeled peptide (in the absence of Mdm2) to ensure no interactions were occurring between the ligands and the FAM-labeled peptide.

[1] = system: p53 responsive β-lactamase reporter in HCT116 cells; assay: p53 beta-lactamase reporter gene cellular functional assay; type: cell-based; conditions: p53 reporter assay, HCT116, read-out: Cellular (µM), cellular activity (EC50)
Experimental: HCT116 cells were stably transfected with a p53 responsive β-lactamase reporter and were seeded into a 384-well plate at a density of 8000 cells per well. Cells were maintained in McCoy’s 5A Medium with 10% fetal bovine serum (FBS), Blasticidin, and Penicillin/Streptomycin. The cells were incubated overnight, followed by removal of cell growth media and replacement with Opti-MEM either containing 0% FBS or 10% FBS. […] The final working concentration of DMSO was 0.5%. β-lactamase activity was detected using the ToxBLAzer Dual Screen (Invitrogen), as per the manufacturer’s instructions. Measurements were made using the Envision multiplate reader (Perkin–Elmer).

[2] = Circular dichroism (CD) α-helicity; type: physicochemical; conditions: CD of free peptide, 25 °C, 1 mM Hepes pH 7.4, 5% methanol
Experimental: A total of 5 µL of the 10 mM stock peptide was mixed with 45 µL of 100% methanol, and dried for 2 h in the SpeedVac concentrator (Thermo Scientific). The dried peptide was reconstituted in a buffer (1 mM Hepes pH 7.4 and 5% methanol) to a concentration of 1 mM. The peptide sample was placed in a quartz cuvette with a path length of 0.2 cm. The peptide concentration was determined by the absorbance of the peptide at […]. The CD spectrum was recorded from 300 to 190 nm using the Chirascan-plus qCD machine (Applied Photophysics, Surrey, UK), at 25 °C. All experiments were done in duplicates. The CD spectrum was converted to mean residue ellipticity, before deconvolution and estimation of the secondary structure components of the peptide using the CDNN software (distributed by Applied Photophysics).

T1 sequence (Q00987 with tags, fused parts or gaps): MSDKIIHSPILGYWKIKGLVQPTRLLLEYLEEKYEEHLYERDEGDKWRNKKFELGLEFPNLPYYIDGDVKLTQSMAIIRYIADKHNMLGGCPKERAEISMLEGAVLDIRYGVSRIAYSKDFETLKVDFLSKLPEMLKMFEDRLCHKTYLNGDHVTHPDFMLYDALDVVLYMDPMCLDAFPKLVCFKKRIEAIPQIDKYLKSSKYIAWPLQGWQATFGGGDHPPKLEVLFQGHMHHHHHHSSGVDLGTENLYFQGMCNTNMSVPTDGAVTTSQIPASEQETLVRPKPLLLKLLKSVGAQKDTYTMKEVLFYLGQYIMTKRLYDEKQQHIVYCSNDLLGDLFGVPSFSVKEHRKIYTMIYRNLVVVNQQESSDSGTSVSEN

| SMILES | Kd (human Mdm2 1–125) | EC50 ([1]; Table 1) | Helicity (%) ([2]; Table 1) | EC50 ([1]; Table 2) | Helicity (%) ([2]; Table 2) |
| --- | --- | --- | --- | --- | --- |
| CC(=O)N[C@@H](CCCCN=[N+]=[N-])C(=O)NCCC(=O)NC(C)(C)C(=O)N[C@H](C(=O)N[C@@H](Cc1ccccc1)C(=O)N[C@]1(C)CCCCCCC=CCCC[C@@](C)(C(=O)N[C@@H](CO)C(=O)N[C@@H](C)C(=O)N[C@@H](C)C(N)=O)NC(=O)[C@H](CC2CCC2)NC(=O)[C@H](CCC(N)=O)NC(=O)[C@H](C)NC(=O)[C@H](Cc2c[nH]c3ccccc23)NC(=O)[C@H](Cc2ccc(O)cc2)NC(=O)[C@H](CCC(=O)O)NC1=O)[C@@H](C)O [L1(Aib)] | – | – | – | 0.49 µM | 42.7% |
| CC(=O)N[C@@H](CCCCN=[N+]=[N-])C(=O)NCCC(=O)N(C)[C@@H](C)C(=O)N[C@H](C(=O)N[C@@H](Cc1ccccc1)C(=O)N[C@]1(C)CCCCCCC=CCCC[C@@](C)(C(=O)N[C@@H](CO)C(=O)N[C@@H](C)C(=O)N[C@@H](C)C(N)=O)NC(=O)[C@H](CC2CCC2)NC(=O)[C@H](CCC(N)=O)NC(=O)[C@H](C)NC(=O)[C@H](Cc2c[nH]c3ccccc23)NC(=O)[C@H](Cc2ccc(O)cc2)NC(=O)[C@H](CCC(=O)O)NC1=O)[C@@H](C)O [L1(N-methyl L-Ala)] | – | – | – | 1.49 µM | 47.2% |
| CC(=O)N[C@@H](CCCCN=[N+]=[N-])C(=O)NCCC(=O)N[C@@H](CC(C)C)C(=O)N[C@H](C(=O)N[C@@H](Cc1ccccc1)C(=O)N[C@]1(C)CCCCCCC=CCCC[C@@](C)(C(=O)N[C@@H](C)C(=O)NC(C)(C)C(=O)N[C@@H](C)C(N)=O)NC(=O)[C@H](CC2CCC2)NC(=O)[C@H](CCC(N)=O)NC(=O)[C@H](C)NC(=O)[C@H](Cc2c[nH]c3ccccc23)NC(=O)[C@H](Cc2ccc(O)cc2)NC(=O)[C@H](CCC(=O)O)NC1=O)[C@@H](C)O [A13(Aib)] (Ac-[Lys(N3)][βAla]LTF[R8]EYWAQ[Cba][S5]A[Aib]A-NH2; staple 6-13) | – | – | – | 0.59 µM | 34.4% |
| CC(=O)N[C@@H](CCCCN=[N+]=[N-])C(=O)NCCC(=O)N[C@@H](CC(C)C)C(=O)N(C)[C@H](C(=O)N[C@@H](Cc1ccccc1)C(=O)N[C@]1(C)CCCCCCC=CCCC[C@@](C)(C(=O)N[C@@H](CO)C(=O)N[C@@H](C)C(=O)N[C@@H](C)C(N)=O)NC(=O)[C@H](CC2CCC2)NC(=O)[C@H](CCC(N)=O)NC(=O)[C@H](C)NC(=O)[C@H](Cc2c[nH]c3ccccc23)NC(=O)[C@H](Cc2ccc(O)cc2)NC(=O)[C@H](CCC(=O)O)NC1=O)[C@@H](C)O [T2(N-methyl L-Thr)] | – | – | – | 7.7 µM | 38.2% |
| CC(=O)N[C@@H](CCCCN=[N+]=[N-])C(=O)NCCC(=O)N[C@@H](CC(C)C)C(=O)N[C@H](C(=O)N[C@@H](Cc1ccccc1)C(=O)N[C@]1(C)CCCCCCC=CCCC[C@@](C)(C(=O)N[C@@H](CO)C(=O)N[C@@H](C)C(=O)N[C@@H](C)C(N)=O)NC(=O)[C@H](CC2CCC2)NC(=O)C(C)(C)NC(=O)[C@H](C)NC(=O)[C@H](Cc2c[nH]c3ccccc23)NC(=O)[C@H](Cc2ccc(O)cc2)NC(=O)[C@H](CCC(=O)O)NC1=O)[C@@H](C)O [Q9(Aib)] | – | – | – | 0.25 µM | 28% |
| CC(=O)N[C@@H](CCCCN=[N+]=[N-])C(=O)NCCC(=O)N[C@@H](CC(C)C)C(=O)N[C@H](C(=O)N[C@@H](Cc1ccccc1)C(=O)N[C@]1(C)CCCCCCC=CCCC[C@@](C)(C(=O)N[C@@H](CO)C(=O)N[C@@H](C)C(=O)N[C@@H](C)C(N)=O)NC(=O)[C@H](CC2CCC2)NC(=O)[C@H](CCC(N)=O)NC(=O)C(C)(C)NC(=O)[C@H](Cc2c[nH]c3ccccc23)NC(=O)[C@H](Cc2ccc(O)cc2)NC(=O)[C@H](CCC(=O)O)NC1=O)[C@@H](C)O [A8(Aib)] | – | – | – | 1.5 µM | 37.5% |
| CC(=O)N[C@@H](CCCCN=[N+]=[N-])C(=O)NCCC(=O)N(C)[C@@H](CC(C)C)C(=O)N[C@H](C(=O)N[C@@H](Cc1ccccc1)C(=O)N[C@]1(C)CCCCCCC=CCCC[C@@](C)(C(=O)N[C@@H](CO)C(=O)N[C@@H](C)C(=O)N[C@@H](C)C(N)=O)NC(=O)[C@H](CC2CCC2)NC(=O)[C@H](CCC(N)=O)NC(=O)[C@H](C)NC(=O)[C@H](Cc2c[nH]c3ccccc23)NC(=O)[C@H](Cc2ccc(O)cc2)NC(=O)[C@H](CCC(=O)O)NC1=O)[C@@H](C)O [L1(N-methyl L-Leu)] | – | – | – | 0.46 µM | 32.6% |
| CC(=O)N[C@@H](CC(C)C)C(=O)N[C@H](C(=O)N[C@@H](Cc1ccccc1)C(=O)N[C@]1(C)CCCCCCC=CCCC[C@@](C)(C(=O)N[C@@H](CO)C(=O)N[C@@H](C)C(=O)N[C@@H](C)C(N)=O)NC(=O)[C@H](CC2CCC2)NC(=O)[C@H](CC(C)C)NC(=O)[C@H](CCC(N)=O)NC(=O)[C@H](C)NC(=O)[C@H](Cc2ccc(O)cc2)NC(=O)[C@H](CCC(=O)O)NC1=O)[C@@H](C)O [Peptide W7A] (Ac-LTF[R8]EYAQL[Cba][S5]SAA-NH2; staple 4-11) | 5090 nM | 8.8 µM | – | – | – |

Further lines, results first:

| Kd (human Mdm2 1–125) | EC50 ([1]; Table 1) | Helicity (%) ([2]; Table 1) | EC50 ([1]; Table 2) | Helicity (%) ([2]; Table 2) | SMILES |
| --- | --- | --- | --- | --- | --- |
| 20.4 nM | 0.35 µM | 36.5% | – | – | CC(=O)N[C@@H](CC(C)C)C(=O)N[C@H](C(=O)N[C@@H](Cc1ccccc1)C(=O)N[C@]1(C)CCCCCCC=CCCC[C@@](C)(C(=O)N[C@@H](C)C(=O)N[C@@H](C)C(=O)N[C@@H](C)C(N)=O)NC(=O)[C@H](CC2CCC2)NC(=O)[C@H](CC(C)C)NC(=O)[C@H](CCC(N)=O)NC(=O)[C@H](Cc2c[nH]c3ccccc23)NC(=O)[C@H](Cc2ccc(O)cc2)NC(=O)[C@H](CCC(=O)O)NC1=O)[C@@H](C)O [Peptide S12A] (Ac-LTF[R8]EYWQL[Cba][S5]AAA-NH2; staple 4-11) |
| 1650 nM | 8.1 µM | – | – | – | CC(=O)N[C@@H](CC(C)C)C(=O)N[C@H](C(=O)N[C@@H](Cc1ccccc1)C(=O)N[C@]1(C)CCCCCCC=CCCC[C@@](C)(C(=O)N[C@@H](CO)C(=O)N[C@@H](C)C(=O)N[C@@H](C)C(N)=O)NC(=O)[C@@H](CC2CCC2)NC(=O)[C@H](CC(C)C)NC(=O)[C@H](CCC(N)=O)NC(=O)[C@H](Cc2c[nH]c3ccccc23)NC(=O)[C@H](Cc2ccc(O)cc2)NC(=O)[C@H](CCC(=O)O)NC1=O)[C@@H](C)O [Cba10(D-Cba)] |
| – | – | – | 2.9 µM | 38.3% | CC(=O)N[C@@H](CCCCN=[N+]=[N-])C(=O)NCCC(=O)N[C@@H](CC(C)C)C(=O)NC(C)(C)C(=O)N[C@@H](Cc1ccccc1)C(=O)N[C@]1(C)CCCCCCC=CCCC[C@@](C)(C(=O)N[C@@H](CO)C(=O)N[C@@H](C)C(=O)N[C@@H](C)C(N)=O)NC(=O)[C@H](CC2CCC2)NC(=O)[C@H](CCC(N)=O)NC(=O)[C@H](C)NC(=O)[C@H](Cc2c[nH]c3ccccc23)NC(=O)[C@H](Cc2ccc(O)cc2)NC(=O)[C@H](CCC(=O)O)NC1=O [T2(Aib)] |
| – | – | – | 0.25 µM | 37.3% | CC(=O)N[C@@H](CCCCN=[N+]=[N-])C(=O)NCCC(=O)N[C@@H](CC(C)C)C(=O)N[C@H](C(=O)N[C@@H](Cc1ccccc1)C(=O)N[C@]1(C)CCCCCCC=CCCC[C@@](C)(C(=O)NC(C)(C)C(=O)N[C@@H](C)C(=O)N[C@@H](C)C(N)=O)NC(=O)[C@H](CC2CCC2)NC(=O)[C@H](CCC(N)=O)NC(=O)[C@H](C)NC(=O)[C@H](Cc2c[nH]c3ccccc23)NC(=O)[C@H](Cc2ccc(O)cc2)NC(=O)[C@H](CCC(=O)O)NC1=O)[C@@H](C)O [S12(Aib)] |
| – | – | – | 0.71 µM | 47.5% | CC(=O)N[C@@H](CCCCN=[N+]=[N-])C(=O)NCCC(=O)N[C@@H](CC(C)C)C(=O)N[C@H](C(=O)N[C@@H](Cc1ccccc1)C(=O)N[C@]1(C)CCCCCCC=CCCC[C@@](C)(C(=O)N[C@@H](CO)C(=O)N[C@@H](C)C(=O)N(C)[C@@H](C)C(N)=O)NC(=O)[C@H](CC2CCC2)NC(=O)[C@H](CCC(N)=O)NC(=O)[C@H](C)NC(=O)[C@H](Cc2c[nH]c3ccccc23)NC(=O)[C@H](Cc2ccc(O)cc2)NC(=O)[C@H](CCC(=O)O)NC1=O)[C@@H](C)O [A14(N-methyl L-Ala)] |
